Data published in patent US12421242B2, “Substituted tetrahydropyrrolo-pyridinone compounds and their use in treating medical conditions” (Karuna Therapeutics, Inc., priority 2022, dated 2025).

Legend:
[1] = target: T1, rM4 receptors (Rattus norvegicus, UniProt P08485); experiment: Rat M4 PAM pERK assay; assay type: cell-based; conditions: PAM mode
T1 construct: expressed in transfected cells; host or cells: CHO cells
T1 sequence (P08485 1-478): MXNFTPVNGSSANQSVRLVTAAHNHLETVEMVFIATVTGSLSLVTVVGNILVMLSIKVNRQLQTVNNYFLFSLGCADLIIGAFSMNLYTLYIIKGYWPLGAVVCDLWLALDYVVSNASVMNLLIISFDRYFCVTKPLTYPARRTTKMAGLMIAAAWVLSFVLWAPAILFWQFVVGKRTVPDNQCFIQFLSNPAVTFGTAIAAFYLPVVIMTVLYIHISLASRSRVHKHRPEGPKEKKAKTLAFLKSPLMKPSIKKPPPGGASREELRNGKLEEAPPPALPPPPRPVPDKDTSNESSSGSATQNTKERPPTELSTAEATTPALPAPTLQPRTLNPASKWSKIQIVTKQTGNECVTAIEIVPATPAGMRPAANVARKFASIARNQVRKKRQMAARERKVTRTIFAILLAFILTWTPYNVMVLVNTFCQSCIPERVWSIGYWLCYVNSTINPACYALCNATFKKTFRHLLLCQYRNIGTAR
Outline: (§1)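 CHO cells expressing hM4 or rM4 were serum-starved 4 h, then given compound (ten-point curve, 10 μM top, duplicate) with an EC20 of acetylcholine (10 nM final) for 5 min at 37° C. Phospho-ERK in lysates was detected by TR-FRET.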

[2] = target: T2, hM4 receptors (Homo sapiens, UniProt P08173); experiment: Human M4 PAM pERK assay; assay type: cell-based; conditions: PAM mode
T2 construct: expressed in transfected cells; host or cells: CHO cells
T2 sequence (P08173 1-479): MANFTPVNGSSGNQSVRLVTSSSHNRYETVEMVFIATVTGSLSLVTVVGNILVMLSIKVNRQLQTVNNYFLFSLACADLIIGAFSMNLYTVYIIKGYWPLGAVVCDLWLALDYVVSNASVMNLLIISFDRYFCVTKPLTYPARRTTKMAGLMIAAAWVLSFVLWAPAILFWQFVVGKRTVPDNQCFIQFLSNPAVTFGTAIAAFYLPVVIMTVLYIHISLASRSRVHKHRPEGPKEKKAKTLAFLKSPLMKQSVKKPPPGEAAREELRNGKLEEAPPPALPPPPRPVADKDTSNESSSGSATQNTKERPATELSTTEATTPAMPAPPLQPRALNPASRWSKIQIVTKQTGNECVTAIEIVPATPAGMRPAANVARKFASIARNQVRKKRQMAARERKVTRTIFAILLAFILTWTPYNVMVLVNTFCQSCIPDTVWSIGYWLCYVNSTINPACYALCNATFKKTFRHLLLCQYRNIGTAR
Outline: as §1

[3] = target: T3, human M4 receptor (Homo sapiens, UniProt P08173); experiment: M4 GTPγS PAM assay; assay type: biochemical; conditions: CHO-K1 membranes expressing human M4, with EC20 acetylcholine (40 nM)
T3 construct: expressed in transfected cells
T3 sequence (P08173 1-479): T2 sequence (P08173 1-479)
Experimental: The M4 GTPγS PAM method was used. Membranes were prepared for GTPgS binding assays from CHO-K1 cells stably expressing human M4 receptor. Briefly, cells were grown in 5-layer cell culture flasks. Cells were washed with 50 mL of PBS and then dissociated with 0.05% trypsin. Dissociated cells were then collected by centrifugation at 650×g for 8 minutes at 4° C. Pellets were washed again in PBS by centrifugation and resuspended in 30 mL of 20 mM HEPES, 10 mM EDTA, pH 7.4. After sitting on ice for 30 min, membranes were collected by centrifugation at 50000×g for 15′ at 4° C., resuspended in 30 mL of 20 mM HEPES, 0.1 mM EDTA, pH 7.4 and collected again by centrifugation. Pellets were then washed twice by centrifugation in 30 mL of 20 mM HEPES, pH 7.4, and stored at −80° C. until the day of the assay. On the day of the assay, pellets were thawed on ice and resuspended in 1 mL of 20 mM HEPES, pH 7.4, 10 mM MgCl2, 100 mM NaCl using dounce homogenization. Membrane protein concentration is determined by BCA protein assay (Promega, Madison, WI) according to Promega guidelines.
On the day of the assay, serial dilutions of test PAM compounds were brought up in assay buffer (20 mM HEPES, 10 mM MgCl2, 100 mM NaCl) at 4× final assay concentration. […] of membrane homogenates (containing […] of membrane protein) were prepared in assay buffer supplemented with GDP at 4× final assay concentration (final assay concentration of GDP is 5 uM for M2 and 0.1 uM for M4) and dispensed into 96 well polypropylene, U-bottom Greiner plates. […] of vehicle or test PAM compound at 4× of final assay concentration diluted in the assay buffer were added to membrane and plates are incubated for 10-15 minutes at room temperature with gentle shaking. Then, […] of EC20 acetylcholine in assay buffer at 4× final assay concentration was added to assay plates (EC20 final assay concentrations was 40 nM for human M4).
Plates were then incubated, with shaking, for an additional 10-15 minutes. 25 mL of 0.4 nM ^35S-GTP (Perkin Elmer, Waltham, MA) in assay buffer was added to assay mixtures. The binding reaction is left on the shaker for 1 hour at room temperature. Membranes in assay reactions were then transferred to GF/C filter plates (Unifilter, Perkin Elmer) and washed three times using a FilterMate Harvester (Perkin Elmer) with cold assay buffer containing no GDP. Filter plates were then dried at 40° C. overnight followed by the addition of […] of Beta Plate Scintillation liquid. Plates are top and bottom sealed before being read on TopCount scintillation counter (Perkin Elmer, Waltham, MA).

Compound	EC50 [1] [nM]	EC50 [2] [nM]	EC50 [3] [nM]
COc1c2c(n(C)c(=O)c1C)CN(C(=O)c1cnn(C(F)(F)F)c1)C2C (racemic) [Compound I-82, 4-Methoxy-1,3,5-trimethyl-6-(1-(trifluoromethyl)-1H-pyrazole-4-carbonyl)-1,5,6,7-tetrahydro-2H-pyrrolo[3,4-b]pyridin-2-one]	500 to 2000	100 to 500	100 to 500
Cc1c(OC(F)F)c2c(n(C)c1=O)CN(C(=O)c1cnn(C(F)(F)F)c1)C2 [Compound I-89, 4-(Difluoromethoxy)-1,3-dimethyl-6-(1-(trifluoromethyl)-1H-pyrazole-4-carbonyl)-1,5,6,7-tetrahydro-2H-pyrrolo[3,4-b]pyridin-2-one]	> 2000	100 to 500	500 to 2000
Cc1c2c(n(C)c(=O)c1Cl)CN(C(=O)c1cnc(C(F)F)s1)C2 [Compound I-36]	500 to 2000	< 100	500 to 2000
Cc1c2c(n(C)c(=O)c1Cl)CN(C(=O)c1ccc(C(F)(F)F)cn1)C2 [Compound I-45]	> 2000	100 to 500	> 2000
Cc1coc(C(=O)N2Cc3c(C)c(Cl)c(=O)n(C)c3C2)n1 [Compound I-22]	> 2000	100 to 500	500 to 2000
Cc1c2c(n(CC(F)(F)F)c(=O)c1Cl)CN(C(=O)c1cnc(CC3CC3)s1)C2 [Compound I-71]	> 2000	500 to 2000	> 2000
Cc1c2c(n(C)c(=O)c1Cl)CN(C(=O)c1cnn(C(F)F)c1)C2 [Compound I-17]	500 to 2000	< 100	> 2000
COc1cc(=O)n(C)c2c1C(C)N(C(=O)c1cnn(C(F)(F)F)c1)C2 (single isomer, unassigned) [Compound I-81]	> 2000	> 2000	> 2000
Cc1c2c(n(C)c(=O)c1Cl)CN(C(=O)c1cc(C(F)(F)F)on1)C2 [Compound I-8]	> 2000	< 100	> 2000
COc1c2c(n(C)c(=O)c1C)CN(C(=O)c1cnn(C(F)(F)F)c1)C2C (single isomer, unassigned) [Compound I-84]	> 2000	500 to 2000	> 2000
CSc1c2c(n(C)c(=O)c1C)CN(C(=O)c1cnn(C(F)(F)F)c1)C2 [Compound I-90, 1,3-Dimethyl-4-(methylthio)-6-(1-(trifluoromethyl)-1H-pyrazole-4-carbonyl)-1,5,6,7-tetrahydro-2H-pyrrolo[3,4-b]pyridin-2-one]	> 2000	100 to 500	500 to 2000
Cc1c2c(n(C)c(=O)c1Cl)CN(C(=O)c1ccnc(C(F)(F)F)c1)C2 [Compound I-42]	> 2000	500 to 2000	> 2000
Cc1c2c(n(C)c(=O)c1C)CN(C(=O)c1cnn(C(F)(F)F)c1)C2 [Compound I-112]	> 2000	< 100	100 to 500
Cc1cc(=O)n(C)c2c1C(C)N(C(=O)c1cnn(C(F)(F)F)c1)C2 (single isomer, unassigned) [Compound I-92, 1,4,5-Trimethyl-6-(1-(trifluoromethyl)-1H-pyrazole-4-carbonyl)-1,5,6,7-tetrahydro-2H-pyrrolo[3,4-b]pyridin-2-one]	> 2000	> 2000	> 2000
Cc1c2c(n(C)c(=O)c1Cl)CN(C(=O)c1csc(C(F)(F)F)n1)C2 [Compound I-26]	> 2000	100 to 500	> 2000
Cc1c2c(n(C)c(=O)c1Cl)CN(C(=O)c1cc3n(n1)CCCC3)C2 [Compound I-32]	> 2000	100 to 500	500 to 2000
Cc1cc(=O)n(C)c2c1C(C)N(C(=O)c1cnc(C(F)(F)F)s1)C2 (single isomer, unassigned) [Compound I-95]	> 2000	100 to 500	500 to 2000
Cc1c2c(n(C)c(=O)c1Cl)CN(C(=O)c1cn(C(C)C)cn1)C2 [Compound I-14]	> 2000	500 to 2000	> 2000
